Source: ChEMBL document CHEMBL1152667, “Synthesis and radiopharmacological investigation of 3-[4'-[(18)F]fluorobenzylidene]indolin-2-one as possible tyrosine kinase inhibitor” (Bioorg Med Chem, 2009)

Tests used:
Testes [1] = assay: Biodistribution in Wistar rat testes at 1.7 MBq, iv administered as single dose measured after 5 mins post-injection by gamma counting; format: ADME, organism-based, Testis; details: in vivo
Adrenal gland = assay: Biodistribution in Wistar rat adrenal gland at 1.7 MBq, iv administered as single dose measured after 10 mins post-injection by gamma counting; format: ADME, organism-based; details: in vivo
Heart [2] = assay: Biodistribution in Wistar rat heart at 1.7 MBq, iv administered as single dose measured after 10 mins post-injection by gamma counting; format: ADME, organism-based; details: in vivo
Femur [3] = assay: Biodistribution in Wistar rat femur at 1.7 MBq, iv administered as single dose measured after 10 mins post-injection by gamma counting; format: ADME, organism-based; details: in vivo
[4] = Ratio of drug level in brown adipose tissue to blood in Wistar rat at 1.7 MBq, iv administered as single dose measured after 60 mins post-injection; format: ADME, organism-based
[5] = Ratio of drug level in brain to blood in Wistar rat at 1.7 MBq, iv administered as single dose measured after 60 mins post-injection; format: ADME, organism-based
[6] = Ratio of drug level in pancreas to blood in Wistar rat at 1.7 MBq, iv administered as single dose measured after 60 mins post-injection; format: ADME, organism-based
[7] = Metabolic stability in Wistar rat blood assessed as compound remaining at 30 MBq, iv after 10 mins by radio-HPLC analysis; format: ADME, organism-based; details: read-out: Stability
[8] = Phase 2 elimination half life in Wistar rat at 30 MBq, iv by radio-HPLC analysis; format: ADME, organism-based; details: in vivo, read-out: beta t1/2 (converted)
[9] = Biodistribution in Wistar rat urine at 1.7 MBq, iv administered as single dose measured after 30 mins post-injection by gamma counting; format: ADME, organism-based; details: in vivo, 0.5 h
Brain [10] = assay: Biodistribution in Wistar rat brain at 1.7 MBq, iv administered as single dose measured after 60 mins post-injection by gamma counting; format: ADME, organism-based; details: in vivo, 1 h
Heart [11] = assay: Biodistribution in Wistar rat heart at 1.7 MBq, iv administered as single dose measured after 60 mins post-injection by gamma counting; format: ADME, organism-based; details: in vivo, 1 h
[12] = Biodistribution in Wistar rat thyroid gland at 1.7 MBq, iv administered as single dose measured after 60 mins post-injection by gamma counting; format: ADME, organism-based; details: in vivo, 1 h
Liver [13] = assay: Biodistribution in Wistar rat liver at 1.7 MBq, iv administered as single dose measured after 60 mins post-injection by gamma counting; format: ADME, organism-based; details: in vivo, 1 h
[14] = Ratio of drug level in adrenal gland to blood in Wistar rat at 1.7 MBq, iv administered as single dose measured after 5 mins post-injection; format: ADME, organism-based
[15] = Ratio of drug level in kidney to blood in Wistar rat at 1.7 MBq, iv administered as single dose measured after 5 mins post-injection; format: ADME, organism-based
[16] = Ratio of drug level in brown adipose tissue to blood in Wistar rat at 1.7 MBq, iv administered as single dose measured after 5 mins post-injection; format: ADME, organism-based
[17] = Ratio of drug level in liver to blood in Wistar rat at 1.7 MBq, iv administered as single dose measured after 60 mins post-injection; format: ADME, organism-based
Brain [18] = assay: Biodistribution in Wistar rat brain assessed as standard uptake value at 1.7 MBq, iv administered as single dose measured after 30 mins post-injection by gamma counting; format: ADME, organism-based; details: in vivo, 0.5 h
Spleen [19] = assay: Biodistribution in Wistar rat spleen assessed as standard uptake value at 1.7 MBq, iv administered as single dose measured after 1 min post-injection by gamma counting; format: ADME, organism-based; details: in vivo
Heart [20] = assay: Biodistribution in Wistar rat heart assessed as standard uptake value at 1.7 MBq, iv administered as single dose measured after 1 min post-injection by gamma counting; format: ADME, organism-based; details: in vivo
Thymus [21] = assay: Biodistribution in Wistar rat thymus assessed as standard uptake value at 1.7 MBq, iv administered as single dose measured after 1 min post-injection by gamma counting; format: ADME, organism-based; details: in vivo
Muscle tissue = assay: Biodistribution in Wistar rat muscle assessed as standard uptake value at 1.7 MBq, iv administered as single dose measured after 30 mins post-injection by gamma counting; format: ADME, organism-based; details: in vivo, 0.5 h
Heart [22] = assay: Biodistribution in Wistar rat heart assessed as standard uptake value at 1.7 MBq, iv administered as single dose measured after 30 mins post-injection by gamma counting; format: ADME, organism-based; details: in vivo, 0.5 h
Thymus [23] = assay: Biodistribution in Wistar rat thymus assessed as standard uptake value at 1.7 MBq, iv administered as single dose measured after 30 mins post-injection by gamma counting; format: ADME, organism-based; details: in vivo, 0.5 h
Brain [24] = assay: Biodistribution in Wistar rat brain assessed as standard uptake value at 1.7 MBq, iv administered as single dose measured after 60 mins post-injection by gamma counting; format: ADME, organism-based; details: in vivo, 1 h
Lung [25] = assay: Biodistribution in Wistar rat lung assessed as standard uptake value at 1.7 MBq, iv administered as single dose measured after 60 mins post-injection by gamma counting; format: ADME, organism-based; details: in vivo, 1 h
[26] = Biodistribution in Wistar rat thyroid gland assessed as standard uptake value at 1.7 MBq, iv administered as single dose measured after 60 mins post-injection by gamma counting; format: ADME, organism-based; details: in vivo, 1 h
Harderian gland = assay: Biodistribution in Wistar rat harderian gland assessed as standard uptake value at 1.7 MBq, iv administered as single dose measured after 60 mins post-injection by gamma counting; format: ADME, organism-based; details: in vivo, 1 h
Kidney = assay: Biodistribution in Wistar rat kidney assessed as standard uptake value at 1.7 MBq, iv administered as single dose measured after 5 mins post-injection by gamma counting; format: ADME, organism-based; details: in vivo
[27] = Biodistribution in Wistar rat adipose tissue assessed as standard uptake value at 1.7 MBq, iv administered as single dose measured after 5 mins post-injection by gamma counting; format: ADME, organism-based; details: in vivo
Liver [28] = assay: Biodistribution in Wistar rat liver assessed as standard uptake value at 1.7 MBq, iv administered as single dose measured after 5 mins post-injection by gamma counting; format: ADME, organism-based; details: in vivo
Femur [29] = assay: Biodistribution in Wistar rat femur assessed as standard uptake value at 1.7 MBq, iv administered as single dose measured after 5 mins post-injection by gamma counting; format: ADME, organism-based; details: in vivo
Testes [30] = assay: Biodistribution in Wistar rat testes assessed as standard uptake value at 1.7 MBq, iv administered as single dose measured after 5 mins post-injection by gamma counting; format: ADME, organism-based, Testis; details: in vivo
[31] = Biodistribution in Wistar rat hair/skin assessed as standard uptake value at 1.7 MBq, iv administered as single dose measured after 10 mins post-injection by gamma counting; format: ADME, organism-based; details: in vivo
Testes [32] = assay: Biodistribution in Wistar rat testes assessed as standard uptake value at 1.7 MBq, iv administered as single dose measured after 60 mins post-injection by gamma counting; format: ADME, organism-based, Testis; details: in vivo, 1 h
Heart [33] = assay: Biodistribution in Wistar rat heart at 1.7 MBq, iv administered as single dose measured after 1 min post-injection by gamma counting; format: ADME, organism-based; details: in vivo
Pancreas [34] = assay: Biodistribution in Wistar rat pancreas assessed as standard uptake value at 1.7 MBq, iv administered as single dose measured after 10 mins post-injection by gamma counting; format: ADME, organism-based; details: in vivo
[35] = Biodistribution in Wistar rat adipose tissue assessed as standard uptake value at 1.7 MBq, iv administered as single dose measured after 10 mins post-injection by gamma counting; format: ADME, organism-based; details: in vivo
Lung [36] = assay: Biodistribution in Wistar rat lung assessed as standard uptake value at 1.7 MBq, iv administered as single dose measured after 10 mins post-injection by gamma counting; format: ADME, organism-based; details: in vivo
Pancreas [37] = assay: Biodistribution in Wistar rat pancreas at 1.7 MBq, iv administered as single dose measured after 5 mins post-injection by gamma counting; format: ADME, organism-based; details: in vivo
Spleen [38] = assay: Biodistribution in Wistar rat spleen at 1.7 MBq, iv administered as single dose measured after 5 mins post-injection by gamma counting; format: ADME, organism-based; details: in vivo

Drug uptake (Testes [1]): 0.38 %ID
Drug uptake (Adrenal gland): 0.1 %ID
Drug uptake (Heart [2]): 0.35 %ID
Drug uptake (Femur [3]): 0.32 %ID
Kp at 1 h [4]: 4.3
Kp at 1 h [5]: 3.2
Kp at 1 h [6]: 2.1
remaining at 10 min [7]: 18%
half-life [8]: 4.45 min
Drug uptake [9]: 11.23 %ID
Drug uptake (Brain [10]): 0.2 %ID
Drug uptake (Heart [11]): 0.08 %ID
Drug uptake [12]: 0.01 %ID
Drug uptake (Liver [13]): 5.98 %ID
Kp at 5 min [14]: 10.2
Kp at 5 min [15]: 4.7
Kp at 5 min [16]: 4.1
Kp at 1 h [17]: 7.9
SUV (Brain [18]): 0.41%
SUV (Spleen [19]): 0.98%
SUV (Heart [20]): 2.52%
SUV (Thymus [21]): 1.1%
SUV (Muscle tissue): 0.45%
SUV (Heart [22]): 0.44%
SUV (Thymus [23]): 0.26%
SUV (Brain [24]): 0.18%
SUV (Lung [25]): 0.27%
SUV [26]: 0.16%
SUV (Harderian gland): 0.46%
SUV (Kidney): 2.64%
SUV [27]: 1.21%
SUV (Liver [28]): 3.74%
SUV (Femur [29]): 0.64%
SUV (Testes [30]): 0.41%
SUV [31]: 0.74%
SUV (Testes [32]): 0.19%
Drug uptake (Heart [33]): 1.01 %ID
SUV (Pancreas [34]): 1.13%
SUV [35]: 1.26%
SUV (Lung [36]): 0.85%
Drug uptake (Pancreas [37]): 0.38 %ID
Drug uptake (Spleen [38]): 0.23 %ID
Structure (SMILES): O=C1Nc2ccccc2/C1=C/c1ccc([18F])cc1
